Reference: US11370847B2, “Single domain antibodies directed against intracellular antigens” (Singh Biotechnology, LLC, priority 2014, dated 2022)
“And” between values parts separate entries of the source, which are not always exact repeats. Equal entries are not always repeated. Where two headings read alike, the source gives them in different places.

Experiments:
SJSA-1 cells = experiment: MTT proliferation assay, SJSA-1; format: cell-based, human; details: for Mean Abs (±SD): 72 hours
EBOv (Makon) = details: Hela; EBOV (Makona); 48 hours
DU145 xenograft = experiment: DU145 prostate cancer xenograft model; details: SBT-100 5 mg/kg bw i.p. BID×14
MDA-MB-231 cells = experiment: MTT proliferation assay, MDA-MB-231; format: cell-based, human; details: MDA-MB-231; for Absorbance: single experiments;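 as to all read-outs here: proliferation of cultured human cancer cells read by MTT, with treated groups compared against a vehicle control group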
STAT3 = STAT3 reporter GloResponse SIE-luc2P/HEK293 assay, IL-6 induction; format: cell-based; details: for decrease in RLU: highest concentration (55.8 μg/mL);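 as to all read-outs here: SIE-luc2P/HEK293 reporter cells stimulated with IL-6 at 40 ng/mL (EC80) after pretreatment, luciferase luminescence (RLU) read the following day, triplicate wells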
PANC-1 xenograft = details: for Tumor Measurements (mm^3), group Mean / Individual Tumor Measurements (mm^3): Group 2: 500 μg/kg bw IP QD×14; for Individual Tumor Measurements (mm^3): single animals, listed as anti-STAT3 bacterial VHH13
PANC-1 cells = experiment: Internalization of sdAb, anti-His staining, PANC-1; format: cell-based; details: 18 hours after sdAb addition
Experimental: The next day, the chambers were rinsed with fresh media and STAT3 VHH13 (SEQ ID NO:3) sdAb (diluted 1:10 in media) or TNF-α VHH66 (SEQ ID NO:45) sdAb was added to the chamber. An anti-HIV-1 Reverse Transcriptase (RT) sdAb was used as a negative control.
The slides were incubated for 18 hours after sdAb addition. The chambers were briefly rinsed with media and fixed in ice-cold methanol for 5-10 min. The chambers were then dried and stained with a fluorescent anti-His tag antibody (1:200) (Novus Biologicals, Littleton, Colo.) for 45 min at room temperature. The slides were rinsed in PBS for 5 minutes and mounted.

endogenous STAT3 = experiment: Immunoprecipitation from cell lines with constitutively activated STAT3; format: binding, human (PANC-1 and DU145) and murine (4T1)
Experimental: Commercial HeLa cells were also treated with interferon gamma (INFΓ) in order to induce phosphorylated STAT3. The PC-3 STAT3 null cell line was used as a negative control.
The cells were grown to 50% to 70% confluence, then disrupted in freshly prepared ice-cold lysis buffer as described above for 45 minutes on ice. Lysates were then centrifuged, the supernatant collected, and protein concentration was determined as described above. […] Beads were then washed. Following the final wash, 60 μl of lysis buffer was added, and the resulting supernatant was subject to Western Blot analysis as described in Example 2.

SJSA-1 xenograft = experiment: SJSA-1 Bone Osteosarcoma subcutaneous xenograft model; details: SBT-100 5.0 mg/kg BID 14 days IP; Doxorubicin 7.0 mg/kg days 1, 8 and 14 IP

anti-STAT3 VHH13: anti-STAT3 single-domain antibody, SEQ ID NO:3; bacterially produced, referred to as SBT-100
IC50 (SJSA-1 cells; SJSA, 72 hr): IC50 = 51 μg/ml
Mean Abs (±SD) (SJSA-1 cells; Table 72 (experiment 5a), SBT-100 3.13 μg/ml alone): 0.278 ± 0.057
Mean Abs (±SD) (SJSA-1 cells; Table 72 (experiment 5a), SBT-100 6.25 μg/ml alone): 0.258 ± 0.097
Mean Abs (±SD) (SJSA-1 cells; Table 72 (experiment 5a), SBT-100 25 μg/ml alone): 0.221 ± 0.034
Mean Abs (±SD) (SJSA-1 cells; Table 72 (experiment 5a), SBT-100 50 μg/ml alone): 0.066 ± 0.003
Mean Abs (±SD) (SJSA-1 cells; Table 72 (experiment 5a), SBT-100 100 μg/ml alone): 0.058 ± 0.002
Mean Abs (±SD) (SJSA-1 cells; Table 73 (Experiment 2, 5b), SBT-100 3.13 μg/ml alone): 0.774 ± 0.068
Mean Abs (±SD) (SJSA-1 cells; Table 73 (Experiment 2, 5b), SBT-100 6.25 μg/ml alone): 0.835 ± 0.058
Mean Abs (±SD) (SJSA-1 cells; Table 73 (Experiment 2, 5b), SBT-100 25 μg/ml alone): 0.781 ± 0.057
Mean Abs (±SD) (SJSA-1 cells; Table 73 (Experiment 2, 5b), SBT-100 50 μg/ml alone): 0.460 ± 0.038
Mean Abs (±SD) (SJSA-1 cells; Table 73 (Experiment 2, 5b), SBT-100 100 μg/ml alone): 0.091 ± 0.002
EC50 (EBOv (Makon)): 19.02 ug/m
EC90 (EBOv (Makon)): 58.72 µg/mL
% treatment/control (DU145 xenograft): 74.8%
mean tumor size (±S.E.) at termination (day 28) (DU145 xenograft): 601.83±131.51
mean tumor size (±SE) at last day of dosing (Day 14) (DU145 xenograft): 364.14±51.64
tumor doubling time (DU145 xenograft; control 14.57 days): 18.19 days
mean tumor growth inhibition at the end of the study (DU145 xenograft; p=0.29): 26.6%
Average Absorbance (MDA-MB-231 cells; 50 μg): 0.82
Average % Inhibition (MDA-MB-231 cells; 50 μg (50.0 μg/ml), listed as Anti-STAT3 Bacterial VHH13): 32.6%
Absorbance (MDA-MB-231 cells; 50 μg, listed as Anti-STAT3 Bacterial VHH13): 0.82 and 0.99 and 0.64
Average Absorbance (MDA-MB-231 cells; 100 μg): 0.11
Absorbance (MDA-MB-231 cells; 100 μg, listed as Anti-STAT3 Bacterial VHH13): 0.07 and 0.12 and 0.14
effect on IL-6 induction of the STAT3 reporter (STAT3; 24 and 48 hours treatment, VHH13 and VHH69 at highest concentration, VHH14 at both concentrations): Inhibition of IL-6
decrease in RLU (STAT3; 24 hours treatment prior to IL-6 induction): greater than 10 fold
decrease in RLU (STAT3; 48 hours treatment prior to IL-6 induction): greater than 1,000 fold
growth inhibition (PANC-1 xenograft; 500 μg/kg bw IP QD×14): no significant growth inhibition
mean tumor size (±SE) on day 14 of dosing (PANC-1 xenograft; 500 μg/kg bw IP QD×14): 318.74 ± 29.76
tumor doubling time (PANC-1 xenograft; 500 μg/kg bw IP QD×14, control […] days): 23.02 days
Tumor Measurements (mm^3), group Mean (PANC-1 xenograft; 2/19): 110.58 mm^3
Tumor Measurements (mm^3), group Mean (PANC-1 xenograft; 2/24): 149.71 mm^3
Tumor Measurements (mm^3), group Mean (PANC-1 xenograft; 2/27): 222.47 mm^3
Tumor Measurements (mm^3), group Mean (PANC-1 xenograft; 3/2): 242.11 mm^3
Tumor Measurements (mm^3), group Mean (PANC-1 xenograft; 3/6): 318.74 mm^3
Tumor Measurements (mm^3), group Mean (PANC-1 xenograft; 3/10): 408.74 mm^3
Individual Tumor Measurements (mm^3) (PANC-1 xenograft; 2/19): 96.31 mm^3 and 89.24 mm^3 and 80.62 mm^3 and 108.03 mm^3 and 77.66 mm^3 and 129.68 mm^3 and 108.99 mm^3 and 123.27 mm^3 and 144.53 mm^3 and 120.96 mm^3 and 112.69 mm^3 and 134.95 mm^3
Individual Tumor Measurements (mm^3) (PANC-1 xenograft; 2/24): 193.71 mm^3 and 90.03 mm^3 and 148.97 mm^3 and 144.14 mm^3 and 116.21 mm^3 and 143.20 mm^3 and 182.30 mm^3 and 171.03 mm^3 and 136.03 mm^3 and 136.48 mm^3 and 144.76 mm^3 and 189.64 mm^3
Individual Tumor Measurements (mm^3) (PANC-1 xenograft; 2/27): 275.06 mm^3 and 112.43 mm^3 and 196.38 mm^3 and 234.46 mm^3 and 313.19 mm^3 and 290.67 mm^3 and 239.00 mm^3 and 223.34 mm^3 and 198.47 mm^3 and 226.43 mm^3 and 167.12 mm^3 and 193.14 mm^3
Individual Tumor Measurements (mm^3) (PANC-1 xenograft; 3/2): 317.53 mm^3 and 125.51 mm^3 and 187.24 mm^3 and 240.39 mm^3 and 290.38 mm^3 and 224.92 mm^3 and 254.64 mm^3 and 226.88 mm^3 and 226.04 mm^3 and 338.06 mm^3 and 225.70 mm^3 and 248.01 mm^3
Individual Tumor Measurements (mm^3) (PANC-1 xenograft; 3/6): 395.37 mm^3 and 189.63 mm^3 and 299.84 mm^3 and 288.75 mm^3 and 411.66 mm^3 and 261.44 mm^3 and 342.19 mm^3 and 248.69 mm^3 and 247.97 mm^3 and 564.71 mm^3 and 223.06 mm^3 and 351.63 mm^3
Individual Tumor Measurements (mm^3) (PANC-1 xenograft; 3/10): 540.66 mm^3 and 235.08 mm^3 and 530.46 mm^3 and 421.61 mm^3 and 197.67 mm^3 and 343.04 mm^3 and 464.00 mm^3 and 324.30 mm^3 and 273.58 mm^3 and 883.81 mm^3 and 326.19 mm^3 and 364.44 mm^3
% treatment/control (PANC-1 xenograft; SBT-100 5 mg/kg bw i.p. BID×14): 52.79%
mean tumor size (±S.E.) at termination (day 28) (PANC-1 xenograft; SBT-100 5 mg/kg bw i.p. BID×14): 203.02±30.34
mean tumor size (±SE) at last day of dosing (Day 14) (PANC-1 xenograft; SBT-100 5 mg/kg bw i.p. BID×14): 159.03±28.01
tumor doubling time (PANC-1 xenograft; SBT-100 5 mg/kg bw i.p. BID×14, control 18.51 days): 35.70 days
mean tumor growth inhibition at the end of the study (PANC-1 xenograft; SBT-100 5 mg/kg bw i.p. BID×14, p=0.35): 41.78%
staining with fluorescent anti-His tag antibody (PANC-1 cells): positive cytoplasmic staining
binding to Phospho-STAT3 (endogenous STAT3; HeLa lysate (interferon gamma treated)): bound
immunoprecipitation of endogenous STAT3 (endogenous STAT3; PANC-1, DU145 and 4T1 lysates): immunoprecipitated
immunoprecipitation in STAT3 null cell line (endogenous STAT3; PC-3 (negative control)): No bands
% T/C (SJSA-1 xenograft): 69.91%
mean tumor growth inhibition at the end of the study (SJSA-1 xenograft): 25.23%
